Where “and” joins values, the source holds several entries; their conditions need not be identical. Equal entries are not always repeated. Results filed as inconclusive are left out.

18 compounds from PubChem BioAssay AID206 (DTP/NCI, 2004) can be followed below.

This test deals with nude mice, HT29 intrarenal xenograft, tumor weight T/C. The experiment in a line: NCI In Vivo Anticancer Drug Screen. Data for tumor model HT29;CX-1 Human Adenocarcinoma (MER+) (intrarenal inoculation) in NU/NU Swiss (nude) mice. The conditions noted are these: endpoint: mean tumor weight change, higher = larger tumour. An outline of the steps:
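Compounds were given to mice carrying transplantable tumors; a vehicle-dosed group served as control. The endpoint measured in each group was compared as a T/C quotient.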

[1] abbreviates: dose: 75.0 mg/kg/injection, schedule: Q04DX004 (sc), vehicle: suspension in saline.
[2] abbreviates: dose: 150.0 mg/kg/injection, schedule: Q04DX004 (sc), vehicle: suspension in saline.
The mark [3] stands for this setting: dose: 50.0 mg/kg/injection, schedule: Q04DX004 (sc), vehicle: saline with Tween-80.
Setting [4] is: dose: 100.0 mg/kg/injection, schedule: Q04DX004 (sc), vehicle: saline with Tween-80.
Setting [5] is: dose: 200.0 mg/kg/injection, schedule: Q04DX004 (sc), vehicle: saline with Tween-80.
[6] abbreviates: dose: 400.0 mg/kg/injection, schedule: Q04DX004 (sc), vehicle: saline with Tween-80.
[7] abbreviates: dose: 150.0 mg/kg/injection, schedule: Q04DX004 (sc), vehicle: Klucel (hydroxypropylcellulose) (HPC).
Where [8] appears, read: dose: 300.0 mg/kg/injection, schedule: Q04DX004 (sc), vehicle: Klucel (hydroxypropylcellulose) (HPC).
[9] abbreviates: dose: 600.0 mg/kg/injection, schedule: Q04DX004 (sc), vehicle: Klucel (hydroxypropylcellulose) (HPC).

Turning to `ClCC[N+]12CC[N+](CCCl)(CC1)C2`, the T/C reads like this: (dose: 50.0 mg/kg/injection, schedule: Q01DX010 (sc), vehicle: saline with Tween-80) 37 % of control; (dose: 75.0 mg/kg/injection, schedule: Q04DX004 (sc), vehicle: water) 101 % of control; (dose: 100.0 mg/kg/injection, schedule: Q01DX010 (sc), vehicle: saline with Tween-80) 90 % of control; (dose: 150.0 mg/kg/injection, schedule: Q04DX004 (sc), vehicle: water) 107 % of control; (dose: 200.0 mg/kg/injection, schedule: Q01DX010 (sc), vehicle: saline with Tween-80) 96 % of control; (dose: 300.0 mg/kg/injection, schedule: Q04DX004 (sc), vehicle: water) 98 % of control and 101 % of control. Besides, the T/C (dose: 600.0 mg/kg/injection, schedule: Q04DX004 (sc), vehicle: water) is 43 % of control.
Regarding `Cc1c(N)nc([C@H](CC(N)=O)NC[C@H](N)C(N)=O)nc1C(=O)N[C@H](C(=O)N[C@H](C)[C@@H](O)[C@H](C)C(=O)N[C@H](C(=O)NCCc1nc(-c2nc(C(=O)NCCC[S+](C)C)cs2)cs1)[C@@H](C)O)C(OC1OC(CO)C(O)C(O)C1OC1OC(CO)C(O)C(OC(N)=O)C1O)c1cnc[nH]1` (stereo partly drawn), the T/C runs as follows: (dose: 4.0 mg/kg/injection, schedule: Q01DX010 (sc), vehicle: saline) 59 % of control; (dose: 6.25 mg/kg/injection, schedule: Q04DX004 (sc), vehicle: saline) 116 % of control; (dose: 8.0 mg/kg/injection, schedule: Q01DX010 (sc), vehicle: saline) 59 % of control; (dose: 8.0 mg/kg/injection, schedule: Q04DX004 (sc), vehicle: saline) 111 % of control; (dose: 16.0 mg/kg/injection, schedule: Q04DX004 (sc), vehicle: saline) 114 % of control; (dose: 25.0 mg/kg/injection, schedule: Q04DX004 (sc), vehicle: saline) 160 % of control. Also, the T/C is 43 % of control (dose: 32.0 mg/kg/injection, schedule: Q04DX004 (sc), vehicle: saline); 113 % of control (dose: 50.0 mg/kg/injection, schedule: Q04DX004 (sc), vehicle: saline); 42 % of control (dose: 64.0 mg/kg/injection, schedule: Q01DX010 (sc), vehicle: saline).
For `COC(=O)C12OCC34C(CC5C(C)C6=CC(=O)OC6=CC5(C)C3C(O)C1O)OC(=O)C(OC(C)=O)C24` (stereo not drawn), the T/C runs as follows: (dose: 1.25 mg/kg/injection, schedule: Q04DX004 (sc), vehicle: saline + alcohol) 115 % of control; (dose: 5.0 mg/kg/injection, schedule: Q04DX004 (sc), vehicle: saline + alcohol) 171 % of control; (dose: 10.0 mg/kg/injection, schedule: Q04DX004 (sc), vehicle: saline + alcohol) 165 % of control.
On to `CSC(SC)=C1C(=O)NC(=O)NC1=O`, for which the T/C was 66 % of control (dose: 18.7 mg/kg/injection, schedule: Q04DX004 (sc), vehicle: suspension in saline); 77 % of control (dose: 37.5 mg/kg/injection, schedule: Q04DX004 (sc), vehicle: suspension in saline); 49 % of control under setting [1]; 56 % of control under setting [2]; 97 % of control (dose: 600.0 mg/kg/injection, schedule: Q04DX004 (sc), vehicle: suspension in saline).
On to `CN1C(=O)CC2(CCN(CCCC(=O)c3ccc(F)cc3)CC2)C1=O`, for which, under setting [1], the T/C is 120 % of control.
For the compound `CCOC(=O)CNC(=O)CCCCSc1ncnc2nc[nH]c12`, the T/C is 162 % of control (dose: 225.0 mg/kg/injection, schedule: Q04DX004 (sc), vehicle: saline with Tween-80) and 103 % of control (dose: 450.0 mg/kg/injection, schedule: Q04DX004 (sc), vehicle: saline with Tween-80).
As for `CNC(=O)OCc1c(COC(=O)NC)c(-c2ccccc2)n(C)c1-c1ccccc1`, the T/C runs as follows: (dose: 50.0 mg/kg/injection, schedule: Q04DX004 (sc), vehicle: distilled water + Tween-80) 44 % of control; (dose: 200.0 mg/kg/injection, schedule: Q04DX004 (sc), vehicle: distilled water + Tween-80) 68 % of control; (dose: 400.0 mg/kg/injection, schedule: Q04DX004 (sc), vehicle: distilled water + Tween-80) 104 % of control.
With `C[Si](C)(C)O/C=C1\CCCCC1=O`, the T/C is, setting by setting: under setting [3], 163 % of control; under setting [4], 92 % of control; under setting [5], 123 % of control; under setting [6], 65 % of control.
Turning to `COc1cc2cc(c1Cl)N(C)C(=O)C[C@H](OC(=O)[C@H](C)N(C)C(C)=O)[C@]1(C)O[C@H]1[C@H](C)[C@@H]1C[C@@](O)(NC(=O)O1)[C@H](OC)C=C/C=C(\C)C2`, the T/C was 40 % of control (dose: 50.0 micrograms/kg/injection, schedule: Q01DX010 (sc), vehicle: Klucel (hydroxypropylcellulose) (HPC)); 93 % of control (dose: 100.0 micrograms/kg/injection, schedule: Q01DX010 (sc), vehicle: Klucel (hydroxypropylcellulose) (HPC)); 24 % of control (dose: 200.0 micrograms/kg/injection, schedule: Q01DX010 (sc), vehicle: Klucel (hydroxypropylcellulose) (HPC)).
Regarding `CC(C)CC(=O)NC(C(=O)NC(C(=O)NC(CC(C)C)C(O)CC(=O)NC(C)C(=O)NC(CC(C)C)C(O)CC(=O)O)C(C)C)C(C)C` (stereo not drawn), the T/C is 102 % of control under setting [7], 87 % of control under setting [8] and 69 % of control under setting [9].
Turning to `CCOC(=O)C(N)CSC(=O)NC` (stereo not drawn), the T/C by setting is: (dose: 100.0 mg/kg/injection, schedule: Q04DX004 (sc), vehicle: saline) 92 % of control; (dose: 200.0 mg/kg/injection, schedule: Q04DX004 (sc), vehicle: saline) 96 % of control; (dose: 400.0 mg/kg/injection, schedule: Q04DX004 (sc), vehicle: saline) 103 % of control; (dose: 800.0 mg/kg/injection, schedule: Q04DX004 (sc), vehicle: saline) 62 % of control.
For the compound `O=C1NC(=O)/C(=C/C=C/c2ccccc2)S1`, the T/C under setting [5] was 76 % of control; the T/C under setting [6] was 68 % of control; the T/C (dose: 800.0 mg/kg/injection, schedule: Q04DX004 (sc), vehicle: saline with Tween-80) is 94 % of control; the T/C (dose: 1600.0 mg/kg/injection, schedule: Q04DX004 (sc), vehicle: saline with Tween-80) was 83 % of control.
Turning to `C=CC(=O)NCNC(=O)C=C`, the T/C runs as follows: (dose: 25.0 mg/kg/injection, schedule: Q01DX010 (sc), vehicle: saline) 217 % of control and 220 % of control; (dose: 100.0 mg/kg/injection, schedule: Q01DX010 (sc), vehicle: saline) 213 % of control.
Regarding `COc1ccc2ccccc2c1C1NC(=O)c2ccccc2N1` (stereo not drawn), the T/C runs as follows: under setting [7], 114 % of control; under setting [8], 115 % of control; under setting [9], 207 % of control; (dose: 1200.0 mg/kg/injection, schedule: Q04DX004 (sc), vehicle: Klucel (hydroxypropylcellulose) (HPC)) 201 % of control.
Regarding `CCC(C(=O)O)C(=O)O.[NH2-].[NH2-].[Pt+2]`, the T/C (dose: 75.0 mg/kg/injection, schedule: Q04DX004 (sc), vehicle: saline) was 92 % of control and the T/C (dose: 150.0 mg/kg/injection, schedule: Q04DX004 (sc), vehicle: saline) was 50 % of control.
Take `Cc1cc(NS(=O)(=O)c2ccc(N=Nc3cc(N=Nc4ccc(S(=O)(=O)Nc5cc(C)nc(C)n5)cc4)c4c(NC(=O)C(Cl)Cl)cccc4c3OC(=O)C(Cl)Cl)cc2)nc(C)n1` (tested in a mixture with another compound): the T/C under setting [2] is 204 % of control and the T/C (dose: 1200.0 mg/kg/injection, schedule: Q04DX004 (sc), vehicle: suspension in saline) was 72 % of control.
As to `Nc1nc(N)c2c(Cl)c(CNc3ccc(Cl)c(Cl)c3)ccc2n1`, the T/C is, setting by setting: (dose: 9.38 mg/kg/injection, schedule: Q04DX004 (sc), vehicle: saline with Tween-80) 85 % of control; (dose: 18.75 mg/kg/injection, schedule: Q04DX004 (sc), vehicle: saline with Tween-80) 60 % of control; (dose: 37.5 mg/kg/injection, schedule: Q04DX004 (sc), vehicle: saline with Tween-80) 89 % of control and 94 % of control; (dose: 75.0 mg/kg/injection, schedule: Q04DX004 (sc), vehicle: saline with Tween-80) 91 % of control and 97 % of control; (dose: 150.0 mg/kg/injection, schedule: Q04DX004 (sc), vehicle: saline with Tween-80) 113 % of control; (dose: 300.0 mg/kg/injection, schedule: Q04DX004 (sc), vehicle: saline with Tween-80) 64 % of control.
On to `CCN(CC)CCC(=O)c1ccccc1`, for which the T/C was 65 % of control under setting [3], 60 % of control under setting [4], 50 % of control under setting [5] and 77 % of control under setting [6].
